“And” between values parts separate entries of the source, which are not always exact repeats. Equal values may be shown once. “Also recorded” adds a separate entry of the source. Where a name gives a salt, the structure may show the parent alone. Read-outs that look alike come from different tables or passages of the source. Each block holds one molecule with its values, some of them ahead of it. *1 amine or outer side, *2 acyl side, *3 side chain or, on linkers, in order; H or OH if unused. Where a SMILES comes first, the peptide text is derived from it. Bridges are numbered along the chain shown (N, C = ends). Roman numbers before positions name the chains, in order. [ ]: non-standard residue; d: D form. Actinocin(9to1) = Cc1c2oc3c(C)ccc(C(=O)[*:1])c3nc-2c(C(=O)[*:2])c(N)c1=O; NMeV = CN[C@H](C(=O)O)C(C)C; Sar = CNCC(=O)O
Tests used:
[1] = test system: APPs secretion by NIH 3T3 cell lines; assay: cells; conditions: Mus musculus, NIH3T3, 20 h, read-out: fold increase of APPs secretion
[2] = test system: APPs secretion by NIH 3T3 cell lines; conditions: 50 μM; for Density of APPs band: 20 h culture, n = 2, mean ± S.D.
[3] = cited from earlier work
[4] = cited from earlier work; remark: listed apart in the source
PKC = target: T1, PKC (Rattus norvegicus, UniProt P05696); assay: Protein kinase C activity assay (histone phosphorylation, partially purified rat brain PKC); type: biochemical; conditions: PMA stimulated, 2 min, 30° C.
T1 construct: Partially purified PKCα from rat brain; purchased Promega (Madison, Wis.); host or cells: rat brain (tissue enzyme, partially purified)
Experimental: The following were obtained from the Sigma Chemical Co. (St. […] Anti-PKCα antibody (affinity purified) and its C-terminal region peptide was obtained from Life Technologies (Gaithersburg, Md.). […] All other chemicals were of the highest available purity and were obtained from standard commercial sources. […] Following 2 min initial incubation at 30° C., kinase reactions were initiated by the addition of ^32 P-γ-ATP and enzyme and continued at 30° C. for 2 min. Control incubations contained all assay components except enzyme and ibuprofen. […] All samples were carried out in duplicate.

rat stomach and duodenum = assay: Gastric ulcer index / gastroduodenal lesions in rat; type: in vivo
Experimental: Male Sprague-Dawley rats (12 month) were obtained from Harlan-Sprague-Dawley, Inc. (Indianapolis, Ind.) and housed under controlled conditions of temperature humidity and light/dark cycle. […] Rat blood, brain and 50 μl of cerebrospinal fluid were collected and stored at -70° C. for APPs and PKC analysis by Western blotting. Rat stomach and duodenum were collected for the quantitation of gastroduodenal lesions.
The rat stomach and first 12 cm of the duodenum were opened and carefully shed with saline to remove any residual debris and fixed in 10% buffered formaldehyde. Tissues were examined macroscopically (×10) for lesions and hemorrhages. The evaluation of lesions or hemorrhages was based on the ulcer index (UI) reported by Leyck et al. (1985) and expressed as the sum total of lesions per treatment. The scoring units used ranged from 0 to 5, where zero represents no macroscopically visible lesions; 1 represents one to three small ulcers less than 4 mm; 2 represents more than three small ulcers; 3 represents ulcer hemorrhages with several small ulcers; 4 represents large (>4 mm) ulcers; 5 indicates tissue perforation.

cyclooxygenase = conditions: cited from earlier work
NIH 3T3 cells = assay: Foci formation assay, inhibition of PMA induced neoplastic transformation of NIH 3T3 cells; type: cell-based; conditions: PMA 0.02 μg/ml, 2% FBS
Experimental: (§1) NIH 3T3 cells (American Type Culture Collection, Rockville, Md.) were cultured in DMEM supplemented with 10% FBS inoculated at 10^4 cells/35 […] dish. […] PMA and ibuprofen were dissolved in DMSO and stored in 5% DMSO stock solutions that were diluted a 1000-fold with culture media prior to use. […] The media containing freshly added PMA and ibuprofen were changed every 60 hours for both the foci formation assay and PKCα analysis by Western blot.
Subsequent to washing with a tris/ saline buffer, the cells were stained with a solution of 4% aqueous Giemsa stain in phosphate buffer (pH 7.0). Foci of transformed cells were then visible by eye due to their high local density and verified by under light microscopy.

PKCα = PKCα translocation in NIH 3T3 cells (subcellular fractionation, Western blot); type: cell-based; conditions: 10 μg/ml
Experimental: as §1
The cells were washed twice with phosphate-buffered saline (PBS) at 37° C. and subsequently lysed and scraped in 1 ml ice-cold protein lysis buffer (20 mM Tris-HCl, pH7.4, 2 mM EGTA, 2 mM EDTA, […] leupeptin and […] aprotinin) at 4° C. […] Briefly, cells were homogenized 10× in 15 ml glass homogenizer with a tight-fitting pestle and centrifuged at 900×g for 10 min. The resulting supernatant was then centrifuged at 100,000×g for 60 min to produce a nucleus-free membrane fraction (pellet) and a cytosol fraction (supernatant) for Western blots. The 900×g nuclear pellet was suspended in the 2 ml lysis buffer containing 10% sucrose and 0.1% Triton X-100 and washed twice by centrifuging at 1000×g for 10 min, then resuspended in 1 ml of the same buffer without Triton X-100 for Western blots. The purity of the fractions was monitored by light microscopy. […] The samples were stored at -70° C. until analysis.
15 μl of human plasma, 15 μl of rat plasma, CSF or 50 μg of rat brain protein were denatured with 35 μl of sample buffer at 95° C. for 4 min. Denatured proteins were separated by 10% SDS-polyacrylamide gel electrophoresis with a 50 μg or 20 μg protein load for each sample for APPs or PKC, respectively, and electrophoretically transferred from gel to nitrocellulose membrane. […] The immunoreactive bands were developed using enhanced chemilumenescence (ECL. Amersham Life Sci., Little Chalfont, UK), following extensive washing with the blocking buffer. The PKC bands were verified in each case by competitively blocking the signal with the peptide corresponding to each of PKCs. The bands were quantitated by scanning densitometry. Quantitative comparisons were made between samples processed simultaneously on one blot.

[5] = test system: human neoplastic diseases; conditions: cited from earlier work

SMILES: CC(C(=O)O)c1cccc(Oc2ccccc2)c1 (racemic) [RS-Fenoprofen]
fold induction at 50 µM [1]: 1.6
Density of APPs band [2]: 6.36 ± 0.77

SMILES: CC(C(=O)O)c1ccc(-c2ccccc2)c(F)c1 (racemic) [RS-Flubiprofen]
Density of APPs band [2]: 3.07 ± 0.34

SMILES: Cc1c2oc3c(C)ccc(C(=O)N[C@@H]4C(=O)N[C@H](C(C)C)C(=O)N5CCC[C@H]5C(=O)N(C)CC(=O)N(C)[C@@H](C(C)C)C(=O)O[C@@H]4C)c3nc-2c(C(=O)N[C@@H]2C(=O)N[C@H](C(C)C)C(=O)N3CCC[C@H]3C(=O)N(C)CC(=O)N(C)[C@@H](C(C)C)C(=O)O[C@@H]2C)c(N)c1=O [Actinomycin D] (I: T[dV]P[Sar][NMeV] / II: T[dV]P[Sar][NMeV]; ester I:1-I:C, II:1-II:C; linker I:N-II:N via Actinocin(9to1))
elimination half-life ([3]; in vivo): about 36 hr
excreted in urine ([3]; in vivo): 10%
excreted intact into the bile (in words) ([3]; in vivo): Half of the dose
passage of blood-brain barrier ([3]; in vivo): does not pass the blood-brain barrier

SMILES: O=NN(CCCl)C(=O)NCCCl [Carmustine, 1,3-bis (2-chloroethyl)-1-nitrosourea]
solubility (in words) ([4]; solvent): highly soluble in alcohol and lipids, and poorly soluble in water

SMILES: O=C(O)CCCc1ccc(N(CCCl)CCCl)cc1 [Chlorambucil, 4-[bis(2-chlorethyl)amino]benzenebutanoic acid]
terminal half-life ([3]; in vivo): 1.5 h

SMILES: N.N.[Cl][Pt][Cl] [Cisplatin]
absorption (in words) ([3]; oral): not absorbed orally

SMILES: COc1cccc2c1C(=O)c1c(O)c3c(c(O)c1C2=O)C[C@@](O)(C(C)=O)C[C@@H]3O[C@H]1C[C@H](N)[C@H](O)[C@H](C)O1 [Daunorubicin, 5,12-Naphthacenedione, (8S-cis)-8-acetyl-10-[(3-amino-2,3,6-trideoxy-α-L-lyxo-hexanopyranosyl)oxy]-7,8,9,10-tetrahydro-6,8, 11-trihydroxy-10-methoxy-, hydrochloride]
absorption (in words) ([3]; in vivo, po): Oral absorption is poor
secreted into the bile ([3]; in vivo): ~40%

SMILES: COc1cccc2c1C(=O)c1c(O)c3c(c(O)c1C2=O)C[C@@](O)(C(=O)CO)C[C@@H]3O[C@H]1C[C@H](N)[C@H](O)[C@H](C)O1 [Doxorubicin, 5,12-Naphthacenedione, (8s-cis)-10-[(3-amino-2,3,6-trideoxy-a-L-lyxo-hexopyranosyl)oxy]-7,8,9,10-tetrahydro-6,8,11 trihydroxy-8-(hydroxyacetyl)-1-methoxy-hydrochloride]
absorption (in words) ([3]; in vivo, po): absorbed poorly
elimination half-life ([3]; in vivo): about 30 hr
excreted in urine ([3]; in vivo): a few percent

SMILES: O=NN(CCCl)C(=O)NC1CCCCC1 [Lomustine, 1-(2-chloro-ethyl)-3-cyclohexyl-1 nitrosourea]
tissue levels compared to plasma levels ([3]; 15 minutes after intravenous administration): comparable to plasma levels
radioactivity excreted as degradation products ([3]; oral 30 mg/m^2 to 100 mg/m^2, within 24 hours): about half
ionization ([4]; physiological pH): relatively unionized at a physiological pH

SMILES: CO[C@@]12[C@H](COC(N)=O)C3=C(C(=O)C(C)=C(N)C3=O)N1C[C@@H]1N[C@@H]12 [Mitomycin]
time required to reduce the serum concentration by 50% ([3]; human, in vivo, iv): 17 min
clearance from serum (in words) ([3]; in vivo, iv): rapidly cleared from the serum
excreted in urine ([3]; in vivo): Approximately 10%

SMILES: CN1C(C(=O)Nc2ccccn2)=C(O)c2ccccc2S1(=O)=O [Proxicam]
Density of APPs band [2]: 3.29 ± 0.77

SMILES: C[C@@H](C(=O)O)c1cccc(Oc2ccccc2)c1 [R-Fenoprofen]
fold induction at 50 µM [1]: 1.3
Density of APPs band [2]: 5.32 ± 1.29

SMILES: C[C@@H](C(=O)O)c1ccc(-c2ccccc2)c(F)c1 [R-Flubiprofen]
Density of APPs band [2]: 3.30 ± 0.81

SMILES: C[C@@H](C(=O)O)c1cccc(C(=O)c2ccccc2)c1 [R-Ketoprofen]
Density of APPs band [2]: 3.41 ± 0.39 and 2.74 ± 0.34

SMILES: CC(C(=O)O)c1cccc(C(=O)c2ccccc2)c1 (stereo not drawn) [RS-Ketoprofen]
Density of APPs band [2]: 3.67 ± 0.27 and 2.94 ± 0.98

SMILES: C[C@H](C(=O)O)c1cccc(Oc2ccccc2)c1 [S-Fenoprofen]
fold induction at 50 µM [1]: 1.3
Density of APPs band [2]: 5.32 ± 1.53

SMILES: C[C@H](C(=O)O)c1ccc(-c2ccccc2)c(F)c1 [S-Flubiprofen]
Density of APPs band [2]: 2.37 ± 0.66

SMILES: C[C@H](C(=O)O)c1cccc(C(=O)c2ccccc2)c1 [S-Ketoprofen]
Density of APPs band [2]: 2.99 ± 0.57 and 3.76 ± 1.26

concentration inhibiting PKC mediated histone phosphorylation (PKC): 1 µM
SMILES: CC(C)Cc1ccc([C@H](C)C(=O)O)cc1 [S-ibuprofen]
Bleeding site (B), column 1 (rat stomach and duodenum; 10 mg/kg bid, 7 days, column 1): 4
gastropathy (in words) (rat stomach and duodenum; rat, in vivo): induced serious gastric ulcers and hemorrhage
capability to inhibit cyclooxygenase (in words) (cyclooxygenase): inhibition of cyclooxygenase activity by ibuprofen resides almost exclusively in the S-enantiomer
potency in suppressing prostaglandin formation, S- versus R-ibuprofen (cyclooxygenase; from arachidonic acid): approximately 100 times
inhibition of foci formation, enantiomers compared to racemate (NIH 3T3 cells): more pronounced than that of the racemate; also recorded: more effective than the racemic mixture
inhibition of PMA induced foci formation / neoplastic transformation (NIH 3T3 cells; 6 weeks, ibuprofen 10 or 100 μg/ml): dramatically decreased; also recorded: inhibit the neoplastic transformation; also recorded: substantially inhibited
inhibition of PKCα translocation from cytosol to nuclear compartments (PKCα; PMA 4 hours): clearly modulated the time dependent intracellular redistribution of PKCα
inhibition of PKCα translocation, racemate versus enantiomers (PKCα; particularly 2 weeks of PMA): more effective than the racemic mixture

SMILES: CC[C@]1(O)C[C@@H]2CN(CCc3c([nH]c4ccccc34)[C@@](C(=O)OC)(c3cc4c(cc3OC)N(C)[C@H]3[C@@](O)(C(=O)OC)[C@H](OC(C)=O)[C@]5(CC)C=CCN6CC[C@]43[C@@H]65)C2)C1 [Vinblastine]
excreted in urine ([3]; in vivo): Approximately 15%
recovered in the feces ([3]; in vivo): about 10%
cases with significant improvement ([5]; lymphomas, particularly Hodgkin's disease): 50 to 90%

SMILES: CC[C@]1(O)C[C@H]2CN(CCc3c([nH]c4ccccc34)[C@@](C(=O)OC)(c3cc4c(cc3OC)N(C=O)[C@H]3[C@@](O)(C(=O)OC)[C@H](OC(C)=O)[C@]5(CC)C=CCN6CC[C@]43[C@@H]65)C2)C1 [Vincristine]
concentration in blood cells (in words) ([3]; in vivo): extensively concentrated in platelets and to a lesser extent in leukocytes and erythrocytes
absorption (in words) ([3]; oral): Unpredictable absorption

SMILES: CS(=O)(=O)OCCCCOS(C)(=O)=O [busulfan, 1,4-butanediol dimethanesulfonate]
patients obtaining hematologic remission ([5]; previously untreated chronic myelogenous leukemia, adults): Approximately 90%

SMILES: COc1cccc2c1C(=O)c1c(O)c3c(c(O)c1C2=O)C[C@@](O)(C(C)O)C[C@@H]3O[C@H]1C[C@H](N)[C@H](O)[C@H](C)O1 (stereo partly drawn) [daunorubicinol]
elimination half-life ([3]; in vivo): about 27 hr

SMILES: CC(C(=O)O)c1cccc(Oc2ccccc2)c1 (stereo not drawn) [fenoprofen]
APPs secretion (in words) ([2]; 20 h): increased APPs secretion

— US6255347A (priority 1997, dated 2001)
